Measured values: patent US9624199B2, “Substituted bipiperidinyl derivatives” (Bayer Pharma Aktiengesellschaft, priority 2013, dated 2017)
Where a name gives a salt, the structure may show the parent alone.

Key:
[1] = molecular target: recombinant human α2C receptor CHO cell line (Homo sapiens (Human), UniProt P18825); assay: Antagonism against adrenoreceptor α2C (luminescence, noradrenaline-stimulated recombinant CHO cells); format: cell-based; settings: 20 nM noradrenaline, tested up to 10 μM
Procedure: B-1a) Antagonism Against Adrenoreceptors
Antagonism against the adrenoreceptor α1A was tested using a recombinant human α1A receptor CHO cell line which additionally also recombinantly expresses mtAeq (mitochondrial aequorin). Antagonism against the adrenoreceptor α2A was tested using a recombinant human α2A-Gα16 receptor fusion protein CHO cell line (PerkinElmer Life Sciences) which additionally also recombinantly expresses mtAeq. Antagonism against the adrenoreceptor α2B was tested using a recombinant human α2B receptor CHO cell line (PerkinElmer Life Sciences) which additionally also recombinantly expresses mtAeq. Antagonism against the adrenoreceptor α2C was tested using a recombinant human α2C receptor CHO cell line which additionally also recombinantly expresses a chimeric G protein (Gαqi3) and mtOb (mitochondrial obelin).
The cells were cultivated at 37° C. and 5% CO2 in Dulbecco's modified Eagle's Medium/NUT mix F12 with L-glutamine which additionally contained 10% (v/v) inactivated foetal calf serum, 1 mM sodium pyruvate, 0.9 mM sodium bicarbonate, 50 U/ml penicillin, 50 μg/ml streptomycin, 2.5 μg/ml amphotericin B and 1 mg/ml Geneticin. The cells were passaged with enzyme-free Hank's-based cell dissociation buffer. All cell culture reagents used were from Invitrogen (Carlsbad, USA).
Luminescence measurements were carried out on white 384-well microtitre plates. 2000 cells/well were plated in a volume of 25 μl and cultivated for one day at 30° C. and 5% CO2 in cell culture medium with coelenterazine (α2A and α2B: 5 μg/ml; α1a/c and α2C: 2.5 μg/ml). Serial dilutions of the test substances (10 μl) were added to the cells. After 5 minutes, noradrenaline was added to the cells (35 μl; final concentrations: 20 nM (α1a/c and α2C) or 200 nM (α2A and α2B)), and the emitted light was measured for 50 seconds using a CCD (charge-coupled device) camera (Hamamatsu Corporation, Shizuoka, Japan) in a light-tight box. The test substances were tested up to a maximum concentration of 10 μM. The IC50 values were calculated from the appropriate dose-response curves.

[2] = tested on: diabetic (ZDFfa/fa) and healthy rats (Wistar); assay: Assay of perfusion-enhancing substances (microcirculation), laser doppler probe at the paw; format: in vivo, rat; settings: single oral dose; for factor by which microcirculation is improved at MED compared to placebo: at the MED, 30 min after administration; for MED skin temperature: minimum effective dose for significant increase of skin temperature (ttest); for MED microcirculation: minimum effective dose with significantly improved microcirculation vs placebo, measured 30 min after administration
Excerpt: B-2e) Assay of Perfusion-Enhancing Substances (Microcirculation)
In diabetic (ZDFfa/fa) and healthy rats (Wistar), a laser doppler probe was fastened under anaesthesia conditions (isoflurane anaesthesia) at the sole of the paw for measuring cutaneous microcirculation. The test animals were once treated orally with the test substances. During the experiment, microperfusion and temperature of the lower extremities were documented continuously. Here, a temperature-sensitive laser doppler probe (Periflux, 02C) was fastened with adhesive to the paws of the animals, allowing the measurement of microperfusion and skin temperature. The microcirculation measurement values were measured on both paws 30 min after oral administration of the test substance. […] Also stated is the MED for the significant increase of skin temperature (ttest).
Microcirculation data for adrenoreceptor α2C receptor antagonist of the compound of Example 11 and for comparative substance ORM12741, an AR α2C receptor antagonist from Orion, are shown in Table 2: […]

Chain of recombinant human α2C receptor CHO cell line (P18825 whole entry): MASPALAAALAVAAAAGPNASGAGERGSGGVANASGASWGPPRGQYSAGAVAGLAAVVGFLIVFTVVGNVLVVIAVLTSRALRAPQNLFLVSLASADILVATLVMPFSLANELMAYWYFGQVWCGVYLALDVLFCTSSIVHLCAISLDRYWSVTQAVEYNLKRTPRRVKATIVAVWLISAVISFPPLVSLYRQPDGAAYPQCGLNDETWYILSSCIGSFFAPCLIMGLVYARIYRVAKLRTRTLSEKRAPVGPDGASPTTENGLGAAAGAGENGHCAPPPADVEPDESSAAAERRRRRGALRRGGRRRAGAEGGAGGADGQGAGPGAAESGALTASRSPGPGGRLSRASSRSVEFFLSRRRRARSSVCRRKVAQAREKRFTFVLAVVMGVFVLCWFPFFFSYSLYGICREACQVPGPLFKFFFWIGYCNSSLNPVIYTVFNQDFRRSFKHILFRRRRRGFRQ

SMILES | IC50 [1] [nM] | also measured
C[C@@H]1CCCN(C2CCN(C(=O)c3ccc(N4CCOCC4)nc3)CC2)C1 [Example 1, [(3R)-3-Methyl-1,4′-bipiperidin-1′-yl][6-(morpholin-4-yl)pyridin-3-yl]methanone formic acid salt] |  | IC50 ([1]; formic acid salt): 28 nM
C[C@@H]1CCCN(C2CCN(C(=O)c3ccc(N4CCOCC4)nc3)CC2)C1 [Example 2, [(3R)-3-Methyl-1,4′-bipiperidin-1′-yl][6-(morpholin-4-yl)pyridin-3-yl]methanone] | 50 | 
COC[C@H]1CCCN1c1ccc(C(=O)N2CCC(N3CCC[C@@H](C)C3)CC2)cn1 [Example 3, {6-[(2R)-2-(Methoxymethyl)pyrrolidin-1-yl]pyridin-3-yl}[(3R)-3-methyl-1,4′-bipiperidin-1′-yl]methanone formic acid salt] | 11 | 
COCCNc1ccc(C(=O)N2CCC(N3CCC[C@@H](C)C3)CC2)cn1 [Example 4, {6-[(2-Methoxyethyl)amino]pyridin-3-yl}[(3R)-3-methyl-1,4′-bipiperidin-1′-yl]methanone] | 36 | 
C[C@@H]1CCCN(C2CCN(C(=O)c3ccc(N4CCC(F)(F)CC4)nc3)CC2)C1 [Example 5, [6-(4,4-Difluoropiperidin-1-yl)pyridin-3-yl][(3R)-3-methyl-1,4′-bipiperidin-1′-yl]methanone] | 18 | 
COCCN(C)c1ccc(C(=O)N2CCC(N3CCC[C@@H](C)C3)CC2)cn1 [Example 6, {6-[(2-Methoxyethyl)(methyl)amino]pyridin-3-yl}[(3R)-3-methyl-1,4′-bipiperidin-1′-yl]methanone hydrochloride] | 33 | 
O=C(c1ccc(N2CCOCC2)nc1)N1CCC(N2CCCC(OCC3CC3)C2)CC1 (stereo not drawn) [Example 7, [3-(Cyclopropylmethoxy)-1,4′-bipiperidin-1′-yl][6-(morpholin-4-yl)pyridin-3-yl]methanone] | 13 | 
C[C@@H]1CCCN(C2CCN(C(=O)c3ccc(N(C)Cc4c(F)cccc4F)nc3)CC2)C1 [Example 8, {6-[(2,6-Difluorobenzyl)(methyl)amino]pyridin-3-yl}[(3R)-3-methyl-1,4′-bipiperidin-1′-yl]methanone] | 4.5 | 
C[C@@H]1CCCN(C2CCN(C(=O)c3ccc(N4CCS(=O)(=O)CC4)nc3)CC2)C1 [Example 9, [6-(1,1-Dioxidothiomorpholin-4-yl)pyridin-3-yl][(3R)-3-methyl-1,4′-bipiperidin-1′-yl]methanone] | 27 | 
CC[C@@H](CO)Nc1ccc(C(=O)N2CCC(N3CCC[C@@H](C)C3)CC2)cn1 [Example 10, (6-{[(2 S)-1-Hydroxybutan-2-yl]amino}pyridin-3-yl)[(3R)-3-methyl-1,4′-bipiperidin-1′-yl]methanone] | 18 | 
CCC(CO)Nc1ccc(C(=O)N2CCC(N3CCC[C@@H](C)C3)CC2)cn1 (stereo partly drawn) [Example 11, {6[(1-Hydroxybutan-2-yl)amino]pyridin-3-yl}[(3R)-3-methyl-1,4′-bipiperidin-1′-yl]methanone] | 62 | factor by which microcirculation is improved at MED compared to placebo [2]: 2.4 ×; MED skin temperature [2]: 1 mg/kg; MED microcirculation [2]: 1 mg/kg
CCC(COC(N)=O)Nc1ccc(C(=O)N2CCC(N3CCC[C@@H](C)C3)CC2)cn1 (stereo partly drawn) [Example 12, 2-[(5-{[(3R)-3-Methyl-1,4′-bipiperidin-1′-yl]carbonyl}pyridin-2-yl)amino]butyl carbamate] | 21 | 
COC1CCN(c2ccc(C(=O)N3CCC(N4CCC[C@@H](C)C4)CC3)cn2)C1 (stereo partly drawn) [Example 13, [6-(3-Methoxypyrrolidin-1-yl)pyridin-3-yl][(3R)-3-methyl-1,4′-bipiperidin-1′-yl]methanone] | 12 | 
CCC(COC)Nc1ccc(C(=O)N2CCC(N3CCC[C@@H](C)C3)CC2)cn1 (stereo partly drawn) [Example 14, {6-[(1-Methoxybutan-2-yl)amino]pyridin-3-yl}[(3R)-3-methyl-1,4′-bipiperidin-1′-yl]methanone] | 16 | 
CC1CCCN(c2ccc(C(=O)N3CCC(N4CCC[C@@H](C)C4)CC3)cn2)C1 (stereo partly drawn) [Example 15, [(3R)-3-Methyl-1,4′-bipiperidin-1′-yl][6-(3-methylpiperidin-1-yl)pyridin-3-yl]methanone] | 27 | 
C[C@@H]1CCCN(C2CCN(C(=O)c3cnc(N4CCOCC4)nc3)CC2)C1 [Example 16, [(3R)-3-Methyl-1,4′-bipiperidin-1′-yl][2-(morpholin-4-yl)pyrimidin-5-yl]methanone] | 54 | 
O=C(c1cnc(N2CCOCC2)nc1)N1CCC(N2CCCC(OCC3CC3)C2)CC1 (stereo not drawn) [Example 17, [3-(Cyclopropylmethoxy)-1,4′-bipiperidin-1′-yl][2-(morpholin-4-yl)pyrimidin-5-yl]methanone] | 14 | 
C[C@@H]1CCCN(C2CCN(C(=O)c3cnc(N4CC5(COC5)C4)nc3)CC2)C1 [Example 18, [(3R)-3-Methyl-1,4′-bipiperidin-1′-yl][2-(2-oxa-6-azaspiro[3.3]hept-6-yl)pyrimidin-5-yl]methanone] | 24 | 
C[C@@H]1CCCN(C2CCN(C(=O)c3cnc(N4CCC(F)(F)CC4)nc3)CC2)C1 [Example 19, [2-(4,4-Difluoropiperidin-1-yl)pyrimidin-5-yl][(3R)-3-methyl-1,4′-bipiperidin-1′-yl]methanone] | 19 | 
COC[C@H]1CCCN1c1ncc(C(=O)N2CCC(N3CCC[C@@H](C)C3)CC2)cn1 [Example 20, {2-[(2R)-2-(Methoxymethyl)pyrrolidin-1-yl]pyrimidin-5-yl}[(3R)-3-methyl-1,4′-bipiperidin-1′-yl]methanone] | 41 | 
C[C@@H]1CCCN(C2CCN(C(=O)c3cnc(N4CCS(=O)(=O)CC4)cn3)CC2)C1 [Example 21, [5-(1,1-Dioxidothiomorpholin-4-yl)pyrazin-2-yl][(3R)-3-methyl-1,4′-bipiperidin-1′-yl]methanone] | 71 | 
COC[C@@]1(C)CCCN2CCc3c(oc4ccccc34)[C@@H]21 [ORM-12741, reference compound] |  | factor by which microcirculation is improved at MED compared to placebo [2]: 1.9 ×; MED skin temperature [2]: 0.01 mg/kg; MED microcirculation [2]: 0.1 mg/kg
